Assay results taken from publication PMC4490784, “Compensatory induction of MYC expression by sustained CDK9 inhibition via a BRD4-dependent mechanism” (eLife, 2015).

Tests used:
Test in all cases: biochemical binding or enzymatic assay
ALK = target: T1, ALK (Homo sapiens, UniProt Q9UM73); conditions: Novartis
T1 construct: purchased DiscoveRx KINOMEscan
Method: (§1) Finally, the selectivity profile of i-CDK9 toward other non-CDK kinases was also assessed using the KINOMEscan platform. […] Except for CLK4, for which no suitable assay was available, the rest of the kinases plus a selected group of others were re-examined for the concentration-dependent effect of i-CDK9 in either functional kinase assays or binding assays. […] Indeed, it has recently been reported that DYRK1A acts as a Pol II CTD Kinase at its target gene promoters ([Di Vona et al., 2015]).

AXL = target: T2, AXL (Homo sapiens, UniProt P30530); conditions: Novartis
T2 construct: purchased DiscoveRx KINOMEscan
Method: as §1

CLK1 = target: T3, CLK1 (Homo sapiens, UniProt P49759); conditions: Invitrogen
T3 construct: purchased DiscoveRx KINOMEscan
Method: as §1

CSK = target: T4, CSK (Homo sapiens, UniProt P41240); conditions: Novartis
T4 construct: purchased DiscoveRx KINOMEscan
Method: as §1

DYRK2 = target: T5, DYRK2 (Homo sapiens, UniProt Q92630); conditions: Millipore
T5 construct: purchased DiscoveRx KINOMEscan
T5 sequence (Q92630 1-601): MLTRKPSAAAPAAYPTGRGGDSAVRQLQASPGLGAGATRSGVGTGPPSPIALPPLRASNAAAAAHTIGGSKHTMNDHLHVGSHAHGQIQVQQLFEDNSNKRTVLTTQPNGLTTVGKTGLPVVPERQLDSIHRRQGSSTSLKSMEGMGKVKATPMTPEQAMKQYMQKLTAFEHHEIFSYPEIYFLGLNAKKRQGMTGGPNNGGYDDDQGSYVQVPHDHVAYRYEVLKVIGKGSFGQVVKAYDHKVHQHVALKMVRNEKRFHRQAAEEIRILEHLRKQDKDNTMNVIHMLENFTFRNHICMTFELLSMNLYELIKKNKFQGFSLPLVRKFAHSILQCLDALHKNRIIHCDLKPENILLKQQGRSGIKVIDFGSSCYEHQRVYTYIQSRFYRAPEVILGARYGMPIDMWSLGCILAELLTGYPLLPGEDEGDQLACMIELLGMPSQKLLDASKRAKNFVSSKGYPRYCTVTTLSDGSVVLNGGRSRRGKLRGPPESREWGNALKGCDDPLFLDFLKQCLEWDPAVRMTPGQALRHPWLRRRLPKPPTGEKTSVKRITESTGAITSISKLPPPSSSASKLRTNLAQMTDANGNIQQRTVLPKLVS
Method: as §1

EGFR = target: T6, EGFR (Homo sapiens, UniProt P00533); conditions: Novartis
T6 construct: purchased DiscoveRx KINOMEscan
Method: as §1

ERK2 = target: T7, ERK2 (Homo sapiens, UniProt P28482); conditions: Novartis
T7 construct: purchased DiscoveRx KINOMEscan
Method: as §1

FAK = target: T8, FAK (Homo sapiens, UniProt Q05397); conditions: Novartis
T8 construct: purchased DiscoveRx KINOMEscan
Method: as §1

FGFR1 = target: T9, FGFR1 (Homo sapiens, UniProt P11362); conditions: Novartis
T9 construct: purchased DiscoveRx KINOMEscan
Method: as §1

FGFR2 = target: T10, FGFR2 (Homo sapiens, UniProt P21802); conditions: Novartis
T10 construct: purchased DiscoveRx KINOMEscan
Method: as §1

FGFR3 = target: T11, FGFR3 (Homo sapiens, UniProt P22607); conditions: Novartis
T11 construct: purchased DiscoveRx KINOMEscan
Method: as §1

KIT = target: T12, KIT (Homo sapiens, UniProt P10721); conditions: Novartis
T12 construct: purchased DiscoveRx KINOMEscan
Method: as §1

LYN = target: T13, LYN (Homo sapiens, UniProt P07948); conditions: Novartis
T13 construct: purchased DiscoveRx KINOMEscan
Method: as §1

MAPKAPK2 = target: T14, MAPKAPK2 (Homo sapiens, UniProt P49137); conditions: Novartis
T14 construct: purchased DiscoveRx KINOMEscan
Method: as §1

MET = target: T15, MET (Homo sapiens, UniProt P08581); conditions: Novartis
T15 construct: purchased DiscoveRx KINOMEscan
Method: as §1

MKNK2 = target: T16, MKNK2 (Homo sapiens, UniProt Q9HBH9); conditions: Novartis
T16 construct: purchased DiscoveRx KINOMEscan
Method: as §1

PAK2 = target: T17, PAK2 (Homo sapiens, UniProt Q13177); conditions: Novartis
T17 construct: purchased DiscoveRx KINOMEscan
Method: as §1

PCTK1 = target: T18, PCTK1 (Homo sapiens, UniProt Q00536); conditions: Ambit
T18 construct: purchased DiscoveRx KINOMEscan
Method: as §1

PCTK3 = target: T19, PCTK3 (Homo sapiens, UniProt Q07002); conditions: Ambit
T19 construct: purchased DiscoveRx KINOMEscan
Method: as §1

PDPK1 = target: T20, PDPK1 (Homo sapiens, UniProt O15530); conditions: Novartis
T20 construct: purchased DiscoveRx KINOMEscan
T20 sequence (O15530 1-556): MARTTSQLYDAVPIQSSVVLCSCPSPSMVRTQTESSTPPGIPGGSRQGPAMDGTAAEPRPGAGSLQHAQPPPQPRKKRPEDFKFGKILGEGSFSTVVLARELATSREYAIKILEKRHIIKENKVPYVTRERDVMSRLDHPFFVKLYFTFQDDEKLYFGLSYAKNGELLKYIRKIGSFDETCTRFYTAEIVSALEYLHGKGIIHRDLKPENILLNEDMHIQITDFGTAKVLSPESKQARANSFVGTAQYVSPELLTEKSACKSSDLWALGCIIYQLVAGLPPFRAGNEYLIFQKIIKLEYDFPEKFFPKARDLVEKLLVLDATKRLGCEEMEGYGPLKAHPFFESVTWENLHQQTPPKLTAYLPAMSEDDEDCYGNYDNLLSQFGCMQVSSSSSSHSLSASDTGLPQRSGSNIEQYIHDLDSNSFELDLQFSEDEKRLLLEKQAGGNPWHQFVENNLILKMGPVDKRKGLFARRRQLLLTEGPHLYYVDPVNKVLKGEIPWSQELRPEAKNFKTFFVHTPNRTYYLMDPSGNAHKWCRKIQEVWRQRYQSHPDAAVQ
Method: as §1

PIM2 = target: T21, PIM2 (Homo sapiens, UniProt Q9P1W9); conditions: Novartis
T21 construct: purchased DiscoveRx KINOMEscan
Method: as §1

PKN1 = target: T22, PKN1 (Homo sapiens, UniProt Q16512); conditions: Novartis
T22 construct: purchased DiscoveRx KINOMEscan
Method: as §1

ROCK2 = target: T23, ROCK2 (Homo sapiens, UniProt O75116); conditions: Novartis
T23 construct: purchased DiscoveRx KINOMEscan
Method: as §1

S6K1 = S6K1 (Homo sapiens, UniProt P23443); conditions: Novartis
Method: as §1

SYK = target: T24, SYK (Homo sapiens, UniProt P43405); conditions: Novartis
T24 construct: purchased DiscoveRx KINOMEscan
Method: as §1

[1] = target: T25, TYK2(JH1domain-catalytic) (Homo sapiens, UniProt P29597); conditions: Novartis
T25 construct: TYK2(JH1domain-catalytic)
Method: as §1

T6 sequence (P00533 25-1210): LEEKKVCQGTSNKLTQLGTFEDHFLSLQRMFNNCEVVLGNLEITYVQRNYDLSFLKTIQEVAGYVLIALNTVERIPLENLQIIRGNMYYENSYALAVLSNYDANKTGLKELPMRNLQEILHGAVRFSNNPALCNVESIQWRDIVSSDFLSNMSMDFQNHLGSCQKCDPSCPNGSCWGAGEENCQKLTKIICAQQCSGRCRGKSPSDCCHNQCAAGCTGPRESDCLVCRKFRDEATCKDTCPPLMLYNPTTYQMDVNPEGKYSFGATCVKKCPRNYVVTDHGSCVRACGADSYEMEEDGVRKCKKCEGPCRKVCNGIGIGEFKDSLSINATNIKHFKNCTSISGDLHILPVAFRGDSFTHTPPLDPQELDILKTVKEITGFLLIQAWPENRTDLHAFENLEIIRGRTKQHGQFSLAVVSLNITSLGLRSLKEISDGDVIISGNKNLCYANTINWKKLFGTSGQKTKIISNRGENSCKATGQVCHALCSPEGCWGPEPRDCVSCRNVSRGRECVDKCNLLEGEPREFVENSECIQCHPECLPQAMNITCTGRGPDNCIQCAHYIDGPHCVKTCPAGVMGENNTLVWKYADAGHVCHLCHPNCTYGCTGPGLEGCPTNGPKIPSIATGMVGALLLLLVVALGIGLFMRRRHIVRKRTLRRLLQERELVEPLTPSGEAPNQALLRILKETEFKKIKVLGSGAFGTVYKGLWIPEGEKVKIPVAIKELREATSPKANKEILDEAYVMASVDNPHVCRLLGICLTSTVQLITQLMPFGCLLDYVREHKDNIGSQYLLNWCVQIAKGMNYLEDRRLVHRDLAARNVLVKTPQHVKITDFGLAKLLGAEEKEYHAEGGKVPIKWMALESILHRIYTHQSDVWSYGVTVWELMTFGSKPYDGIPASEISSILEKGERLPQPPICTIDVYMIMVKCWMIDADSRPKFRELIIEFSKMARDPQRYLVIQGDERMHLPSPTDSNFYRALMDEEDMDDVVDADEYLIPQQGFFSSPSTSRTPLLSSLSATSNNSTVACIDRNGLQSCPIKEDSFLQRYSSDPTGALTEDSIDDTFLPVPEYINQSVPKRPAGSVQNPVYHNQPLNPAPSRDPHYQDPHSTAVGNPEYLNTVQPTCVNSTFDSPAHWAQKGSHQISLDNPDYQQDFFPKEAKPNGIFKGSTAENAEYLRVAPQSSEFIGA
T23 sequence (O75116 whole entry): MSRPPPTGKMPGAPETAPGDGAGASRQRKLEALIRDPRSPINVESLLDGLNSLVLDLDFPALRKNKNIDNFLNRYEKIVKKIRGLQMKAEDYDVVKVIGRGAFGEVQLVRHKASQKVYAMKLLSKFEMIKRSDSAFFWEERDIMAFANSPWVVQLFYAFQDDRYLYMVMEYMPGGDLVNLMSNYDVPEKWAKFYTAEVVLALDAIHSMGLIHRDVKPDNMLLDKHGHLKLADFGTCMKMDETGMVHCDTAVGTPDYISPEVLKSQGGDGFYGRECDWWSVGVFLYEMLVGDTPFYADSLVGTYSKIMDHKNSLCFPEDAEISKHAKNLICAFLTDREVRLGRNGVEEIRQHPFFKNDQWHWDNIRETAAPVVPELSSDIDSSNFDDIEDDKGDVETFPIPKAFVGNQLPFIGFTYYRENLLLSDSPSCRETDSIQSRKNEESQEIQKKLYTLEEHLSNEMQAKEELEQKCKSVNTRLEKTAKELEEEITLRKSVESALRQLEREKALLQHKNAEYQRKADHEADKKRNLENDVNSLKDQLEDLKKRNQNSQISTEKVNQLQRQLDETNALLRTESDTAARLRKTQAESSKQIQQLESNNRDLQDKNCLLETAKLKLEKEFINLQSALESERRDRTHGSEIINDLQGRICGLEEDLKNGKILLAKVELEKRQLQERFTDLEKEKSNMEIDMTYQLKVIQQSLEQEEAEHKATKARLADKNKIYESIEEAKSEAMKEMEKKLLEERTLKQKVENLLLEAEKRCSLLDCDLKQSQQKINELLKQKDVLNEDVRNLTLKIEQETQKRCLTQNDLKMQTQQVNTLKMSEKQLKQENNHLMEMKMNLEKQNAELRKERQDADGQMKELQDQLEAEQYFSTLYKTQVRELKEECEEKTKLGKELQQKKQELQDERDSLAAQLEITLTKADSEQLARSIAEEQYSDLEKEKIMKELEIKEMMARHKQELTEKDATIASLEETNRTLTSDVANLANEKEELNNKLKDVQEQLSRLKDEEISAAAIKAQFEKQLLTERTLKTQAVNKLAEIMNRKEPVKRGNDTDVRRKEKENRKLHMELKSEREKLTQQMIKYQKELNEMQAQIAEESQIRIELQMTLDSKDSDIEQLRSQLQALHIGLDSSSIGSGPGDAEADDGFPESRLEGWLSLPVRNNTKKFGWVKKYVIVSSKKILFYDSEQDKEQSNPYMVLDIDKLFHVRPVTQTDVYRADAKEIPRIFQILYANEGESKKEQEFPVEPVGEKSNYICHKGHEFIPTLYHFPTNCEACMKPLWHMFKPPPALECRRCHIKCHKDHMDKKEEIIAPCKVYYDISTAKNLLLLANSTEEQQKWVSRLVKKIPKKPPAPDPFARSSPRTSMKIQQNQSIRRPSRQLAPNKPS
T13 sequence (P07948 whole entry): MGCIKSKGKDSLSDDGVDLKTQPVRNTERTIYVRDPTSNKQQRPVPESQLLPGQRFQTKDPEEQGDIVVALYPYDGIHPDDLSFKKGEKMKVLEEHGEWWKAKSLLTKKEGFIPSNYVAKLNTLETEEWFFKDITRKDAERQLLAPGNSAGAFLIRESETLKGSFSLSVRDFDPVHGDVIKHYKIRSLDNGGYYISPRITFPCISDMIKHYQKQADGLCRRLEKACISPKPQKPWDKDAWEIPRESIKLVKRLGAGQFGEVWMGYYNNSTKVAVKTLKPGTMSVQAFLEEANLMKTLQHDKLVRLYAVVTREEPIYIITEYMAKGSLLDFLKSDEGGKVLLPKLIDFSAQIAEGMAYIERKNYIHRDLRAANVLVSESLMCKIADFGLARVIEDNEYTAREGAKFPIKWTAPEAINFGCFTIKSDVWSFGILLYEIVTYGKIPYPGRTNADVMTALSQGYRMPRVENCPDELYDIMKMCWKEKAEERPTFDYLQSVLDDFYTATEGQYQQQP
T25 sequence (P29597 897-1176 limits assumed): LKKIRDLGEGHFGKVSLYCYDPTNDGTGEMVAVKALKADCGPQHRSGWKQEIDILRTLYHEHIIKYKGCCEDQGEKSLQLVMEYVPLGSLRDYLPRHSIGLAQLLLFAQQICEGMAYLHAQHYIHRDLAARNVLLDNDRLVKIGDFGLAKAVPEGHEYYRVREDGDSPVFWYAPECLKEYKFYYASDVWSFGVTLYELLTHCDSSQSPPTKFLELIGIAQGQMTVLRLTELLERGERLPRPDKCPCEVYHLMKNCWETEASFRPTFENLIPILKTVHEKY
T21 sequence (Q9P1W9 whole entry): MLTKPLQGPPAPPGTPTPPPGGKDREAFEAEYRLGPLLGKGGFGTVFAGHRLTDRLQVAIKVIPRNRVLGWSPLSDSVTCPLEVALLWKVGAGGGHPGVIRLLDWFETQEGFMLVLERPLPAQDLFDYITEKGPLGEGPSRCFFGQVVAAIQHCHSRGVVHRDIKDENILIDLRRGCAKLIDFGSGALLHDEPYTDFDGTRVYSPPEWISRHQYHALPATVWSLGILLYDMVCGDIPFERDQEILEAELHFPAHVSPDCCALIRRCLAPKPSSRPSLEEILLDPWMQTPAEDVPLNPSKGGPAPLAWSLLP
Chain of S6K1 (P23443 whole entry): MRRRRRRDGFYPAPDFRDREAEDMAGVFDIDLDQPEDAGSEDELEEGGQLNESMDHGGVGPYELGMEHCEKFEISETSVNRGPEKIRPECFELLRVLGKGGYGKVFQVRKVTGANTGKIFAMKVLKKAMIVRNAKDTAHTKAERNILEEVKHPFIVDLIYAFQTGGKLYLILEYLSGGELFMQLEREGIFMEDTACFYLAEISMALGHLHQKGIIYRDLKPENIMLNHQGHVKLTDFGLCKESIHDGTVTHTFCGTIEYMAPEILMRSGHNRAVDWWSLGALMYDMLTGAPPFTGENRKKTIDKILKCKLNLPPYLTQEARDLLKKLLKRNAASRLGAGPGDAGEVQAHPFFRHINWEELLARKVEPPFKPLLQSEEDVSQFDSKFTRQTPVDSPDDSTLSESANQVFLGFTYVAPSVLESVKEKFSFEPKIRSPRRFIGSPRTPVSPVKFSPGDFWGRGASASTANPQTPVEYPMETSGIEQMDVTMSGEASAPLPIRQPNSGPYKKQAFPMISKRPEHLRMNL
T17 sequence (Q13177 whole entry): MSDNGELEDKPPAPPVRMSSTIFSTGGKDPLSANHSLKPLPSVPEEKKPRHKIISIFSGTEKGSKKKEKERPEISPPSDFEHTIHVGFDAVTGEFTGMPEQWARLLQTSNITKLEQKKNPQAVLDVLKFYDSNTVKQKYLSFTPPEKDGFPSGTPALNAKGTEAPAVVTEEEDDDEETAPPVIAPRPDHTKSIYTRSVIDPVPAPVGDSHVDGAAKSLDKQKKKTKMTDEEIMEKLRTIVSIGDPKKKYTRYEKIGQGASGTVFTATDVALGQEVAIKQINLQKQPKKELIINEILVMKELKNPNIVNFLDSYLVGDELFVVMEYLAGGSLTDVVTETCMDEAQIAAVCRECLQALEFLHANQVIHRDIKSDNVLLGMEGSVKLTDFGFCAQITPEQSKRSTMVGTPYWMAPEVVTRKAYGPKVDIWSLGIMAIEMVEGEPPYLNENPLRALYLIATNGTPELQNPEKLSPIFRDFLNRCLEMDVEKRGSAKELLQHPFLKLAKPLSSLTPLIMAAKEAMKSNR

Molecule `N[C@H]1CC[C@H](Nc2cc(-c3cccc(NCc4cccc(F)c4)n3)c(Cl)cn2)CC1` [i-CDK9, N2′-(trans-4-aminocyclohexyl)-5′-chloro-N6-(3-fluorobenzyl)-2,4′-bipyridine-2′,6-diamine] has an IC50 (ALK) greater than 10 µM, an IC50 (AXL) greater than 10 µM and an IC50 (CLK1) of 0.525 µM. The IC50 (CSK) was greater than 10 µM, the IC50 (DYRK2) was 1.07 µM and the IC50 (EGFR) was greater than 10 µM. For the same molecule, the IC50 (ERK2) was greater than 10 µM, the IC50 (FAK) was greater than 10 µM and the IC50 (FGFR1) was greater than 10 µM. The IC50 (FGFR2) was greater than 10 µM, the IC50 (FGFR3) was greater than 10 µM and the IC50 (KIT) was greater than 10 µM. For the same molecule, the IC50 (LYN) was greater than 10 µM, the IC50 (MAPKAPK2) was greater than 10 µM and the IC50 (MET) was greater than 10 µM. The IC50 (MKNK2) was greater than 10 µM, the IC50 (PAK2) was greater than 10 µM and the IC50 (PCTK1) was greater than 0.14 µM. It also gave an IC50 (PCTK3) greater than 0.45 µM, an IC50 (PDPK1) greater than 10 µM and an IC50 (PIM2) greater than 10 µM. It also gave an IC50 (PKN1) greater than 10 µM, an IC50 (ROCK2) greater than 10 µM and an IC50 (S6K1) greater than 10 µM. The IC50 (SYK) was greater than 10 µM and the IC50 [1] was greater than 10 µM.
